The results in this text go back to patent US20130115618A1, “PHOSPHOLIPID PROFILING AND CANCER” (KATHOLIEKE UNIVERSITEIT LEUVEN, priority 2010, published 2013).

Common to all, as to type: cell-based
Assay [1] has as its system LNCaP cells. In words: Cell death assay (trypan blue dye exclusion). From the text:
At the indicated time after exposure to soraphen and/or other compounds, the adherent and floating cells were collected by trypsinization and centrifugation and both cell populations were combined.

In assay [2] the test system is LNCaP cells. Put plainly: Lipid peroxidation product assay. The method, then: Equal amounts of cells were scraped in ice-cold PBS, kept on ice for 15 min, and then sonicated (10 bursts). After centrifugation at 3,000 g for 10 min, the supernatants were analyzed using a lipid peroxidation assay kit (Oxford Biomedical Research, Oxford, Mich.) that quantifies the amount of malondialdehydes and 4-hydroxyalkenals, which are generated from fatty acid peroxide decomposition.

Assay [3] has as its system CD36-positive cells (COS-7 transfected with pCD36). In words: CD36-binding assay. As to the method:
LNCaP cells were cultured in the presence or absence of soraphen and/or palmitic acid for 72 hr. The cells were exposed to H2O2 (300 μM) for 30 min. Cells were trypsinized and labeled with Cell Tracker Dye Orange CMRA (C34551). The labeled LNCaP cells (1.5×10^5) were subsequently layered over a monolayer of COS-7 cells, which were cultured on glass coverslips and transfected with a CD36-encoding construct (pCD36) or the corresponding empty vector (pEF-BOS) (both kindly provided by R. Thorne, University of Newcastle, Australia). Cells were co-cultured in 1 ml of RPMI medium for 1 hr at 37° C. After extensive washing, the cultures were fixed and imaged. The fluorescence signal of the CellTracker Dye was measured using Adobe Photoshop software (San Jose, Calif.).

In assay [4] the test system is LNCaP cells. In words: Doxorubicin accumulation (fluorescence microscopy and fluorimetry). The note with it: soraphen 100 nM 72 hr, doxorubicin 10 μM 30 min. The method, then:
To visualize the intracellular doxorubicin accumulation, doxorubicin was added at a final concentration of 10 μM. After 30 min, the cells were analyzed using a fluorescence microscope (515 nm longpass emission filter) and the LIDA software (Leica Microsystems GmbH).
To measure doxorubicin accumulation fluorimetrically, cells were exposed to 10 μM of doxorubicin for 30 min, washed in PBS, lysed in 0.3 M HCl in 50% ethanol (v:v), and centrifuged at 700 g for 5 min. The fluorescence of doxorubicin was measured at an excitation wavelength of 490 nm and an emission wavelength of 580 nm. Where indicated, media were supplemented with palmitic acid.

Assay [5] relates to fatty acid synthesis in LNCaP cells. In words: 2-14C-acetate incorporation assay and TLC analysis. The note with it: soraphen 24 hours, 2-14C-acetate last 4 hours. The method, then: LNCaP cells were treated with soraphen or vehicle (ethanol) for 24 hours. The last 4 hours, 2-^14C-labeled acetate (57 mCi/mmol; 2 μCi/dish; Amersham International, Aylesbury, UK) was added to the culture medium. Lipids were extracted according to a modified Bligh-Dyer method as previously described (De Schrijver et al., 2003). To analyze the incorporation of 2-^14C-acetate into different lipid classes, TLC analysis was performed and the lipids were exposed to a PhosphorImager screen for quantification (Molecular Dynamics, Sunnyvale, Calif.), as previously described (De Schrijver et al., 2003).

The subject of assay [6] is LNCaP cells. Put plainly: Analysis of intact phospholipid species by ESI-MS/MS. The note with it: soraphen 100 nM, 72 hr, versus vehicle. As to the method:
To prepare lipid extracts for ESI-MS/MS analysis, the tissue or cells were homogenized in 1.6 ml of 0.1 N HCl:CH3OH 1:1 (v/v). CHCl3 (0.8 ml) and 200 μg/ml of the anti-oxidant 2,6-di-tert-butyl-4-methylphenol (Sigma) were added (Milne et al., 2006). After addition of the lipid standards, the organic fractions were collected by centrifugation at 200 g for 5 min. Samples were evaporated and reconstituted in CH3OH:CHCl3:NH4OH (90:10:1.25, v/v/v) and the lipids were analyzed by electrospray ionization tandem mass spectrometry (ESI-MS/MS) on a hybrid quadrupole linear ion trap mass spectrometer (4000 QTRAP system; Applied Biosystems, Foster City, Calif.) equipped with a robotic nanoflow/ion source (Advion Biosciences). The system was operated in the MRM mode for quantification of individual species. Data were expressed as fold change relative to the control samples (untreated cells or matched normal tissue) and were presented as heatmaps using the Heatmap Builder software (Clifton Watt, Stanford University, USA).

Assay [7] has as its system LNCaP cells. Put plainly: Doxorubicin flip-flop rate (NBD-PE quenching). The note with it: soraphen 100 nM 72 hr, doxorubicin 10 μM, similar with verapamil 100 μM. As to the method:
To measure the flip-flop rate of doxorubicin, cells were treated with soraphen or vehicle for 72 hr. During the last 24 hr of treatment, 10 μM of NBD-phosphatidylethanolamine (NBD-PE; Invitrogen) was added. Verapamil was added at a concentration of 100 μM 1 hr prior to harvesting the cells by trypsinization. The doxorubicin flip-flop rate across the plasma membrane was measured as the reduction in fluorescence of NBD due to quenching of NBD-PE by doxorubicin (Regev et al., 2005) (See Supplemental Methods for details).

With `COc1cccc2c1C(=O)c1c(O)c3c(c(O)c1C2=O)C[C@@](O)(C(=O)CO)C[C@@H]3O[C@H]1C[C@H](N)[C@H](O)[C@H](C)O1` [doxorubicin], the cell death in assay [1] (standard culture, doxorubicin 4 μM last 24 hr) was 8%.

Regarding `CCCCCCCCCCCCCCCC(=O)O` [palmitic acid], the “effect on soraphen/H2O2-induced increase in lipid peroxidation products” value in assay [2] (soraphen 100 nM 72 hr, 200 μM H2O2 last 2 hr, exogenous palmitic acid 75 μM) was “largely reversed these changes”. Also, in assay [3] (soraphen 100 nM 72 hr, 300 μM H2O2 30 min, exogenous palmitic acid 75 μM), the “effect on soraphen-induced increase of CD36-bound LNCaP cells” value was “counteracted these effects”. Moreover, the “effect on soraphen-induced doxorubicin accumulation” value in assay [4] (palmitic acid 75 μM) is “counteracted the effects of soraphen”. Besides, the “effect on soraphen-sensitized H2O2-induced cell death (rescue)” value in assay [1] (soraphen 100 nM 72 hr, 300 μM H2O2 last 24 hr, fatty acid supplement 75 μM) is reported as “counteracted”. Further, the “effect on soraphen/doxorubicin-induced cell death” value in assay [1] (soraphen 100 nM, doxorubicin 4 μM, palmitic acid 75 μM) is on record as “largely rescued the cells from death”.

Regarding `CO[C@H]1CCCC[C@@H](c2ccccc2)OC(=O)[C@@H](C)[C@@]2(O)O[C@H]([C@@H](C)[C@H](O)[C@H]2OC)[C@@H](C)/C=C/[C@H]1OC` [soraphen, Soraphen A], the “inhibition of fatty acid synthesis / de novo lipogenesis by 2-14C-acetate incorporation” value in assay [5] is “Inhibition of fatty acid synthesis, and as such de novo lipogenesis was confirmed”. Moreover, in assay [6], the “decrease of PC species with one degree of unsaturation” value is recorded as “up to four-fold”, the “effect on PC species with two unsaturations” value is “ambiguous or minor net effect” and the “increase of PC species with more unsaturations (>three)” value is reported as “up to eight-fold”. Moreover, the “levels of lipid peroxidation products” value in assay [2] (soraphen 100 nM, 72 hr) is “significantly increased”. In addition, in assay [3] (soraphen 100 nM 72 hr followed by 300 μM H2O2 for 30 min), the “number of CD36-bound LNCaP cells” value was “substantially increased”. Moreover, the “increase in the flip-flop rate of doxorubicin” value in assay [7] is “six-fold”. Also, in assay [4], the “intracellular accumulation of doxorubicin” value is reported as “significant increase”. In assay [1] (soraphen 100 nM 72 hr, 300 μM H2O2 last 24 hr), the “cell death in response to H2O2” value is recorded as “markedly increased”. For the same molecule, the cell death entry in assay [1] (soraphen alone 100 nM 72 hr) is on record as “up to 20%”.
